Values after ≈ are worked out from the molar mass of the structure shown.
Test system: E. coli (25922)
Assay: MIC assay (Table 1)
Assay type: cell-based
Details: Escherichia coli, isolate 25922

Row | SMILES | MIC50 [µg/mL]
1 | N=C(N)NCCCOc1cc(-c2cn(-c3cc(OCCCNC(=N)N)cc(OCCCNC(=N)N)c3)nn2)cc(-c2cn(-c3cc(OCCCNC(=N)N)cc(OCCCNC(=N)N)c3)nn2)c1 [Compound 100] | 50 (≈ 53.2 µM)
2 | NCCCOc1ccc(-n2cc(-c3cccc(-c4cn(-c5ccc(OCCCN)c(OCCCN)c5)nn4)c3)nn2)cc1OCCCN [Compound 101] | > 50
3 | NCCCOc1cc(OCCCN)cc(-n2cc(-c3ccc4ccc(-c5cn(-c6cc(OCCCN)cc(OCCCN)c6)nn5)cc4c3)nn2)c1 [Compound 102] | > 50
4 | NCCCOc1ccc(-n2cc(-c3ccc4ccc(-c5cn(-c6ccc(OCCCN)c(OCCCN)c6)nn5)cc4c3)nn2)cc1OCCCN [Compound 103] | > 50

Test system: S. aureus (27660)
Assay: MIC assay (Table 1)
Assay type: cell-based
Details: Staphylococcus aureus, isolate 27660

Row | SMILES | MIC50 [µg/mL]
5 | N=C(N)NCCCOc1cc(-c2cn(-c3cc(OCCCNC(=N)N)cc(OCCCNC(=N)N)c3)nn2)cc(-c2cn(-c3cc(OCCCNC(=N)N)cc(OCCCNC(=N)N)c3)nn2)c1 [Compound 100] | 50 (≈ 53.2 µM)
6 | NCCCOc1ccc(-n2cc(-c3cccc(-c4cn(-c5ccc(OCCCN)c(OCCCN)c5)nn4)c3)nn2)cc1OCCCN [Compound 101] | 12.5 (≈ 19 µM)
7 | NCCCOc1cc(OCCCN)cc(-n2cc(-c3ccc4ccc(-c5cn(-c6cc(OCCCN)cc(OCCCN)c6)nn5)cc4c3)nn2)c1 [Compound 102] | 12.5 (≈ 17.7 µM)
8 | NCCCOc1ccc(-n2cc(-c3ccc4ccc(-c5cn(-c6ccc(OCCCN)c(OCCCN)c6)nn5)cc4c3)nn2)cc1OCCCN [Compound 103] | 25 (≈ 35.4 µM)

Test system: E. faecalis (29212)
Assay: MIC assay (Table 1)
Assay type: cell-based
Details: Enterococcus faecalis, isolate 29212
Protocol: (§1) The compounds are screened for antimicrobial activity against a number of clinically relevant pathogens. Minimum Inhibitory Concentrations (MIC) of each of the compounds are determined using standard procedures for clinical ocular isolates of Ciprofloxacin Susceptible (CS) S. aureus (CSSA), Ciprofloxacin Resistant (CR) S. aureus (CRSA), CS S. epidermidis (CSSE), CR S. epidermidis (CRSE), St. pneumoniae (SP), St. viridans group (SV), Moraxella Species (MS) (including Moraxella catarrhalis), H. influenzae (HI), P. aeruginosa (PA), Serratia marcescens (SM), S. aureus fluoroquinolone-susceptible, S. aureus fluoroquinolone-resistant, S. epidermidis (Coagulase-negative Staphylococcus) fluoroquinolone-susceptible, S. epidermidis (Coagulase-negative Staphylococcus) fluoroquinolone-resistant, and Serratia marcescens.
(§2) On the day of testing, a 640 μg/m (1280 μg/m for Serratia marcescens and Pseudomonas aeruginosa) concentration is prepared from a 1% stock solution in 0.01% acetic acid, 0.2% BSA in polypropylene tubes.
(§3) Ten μl of diluted 10× test agents is added to each well of one row of the 96 well polypropylene plates from column 2 to column 12 (column 1 is a control for bacteria alone, with no peptide). […] The same peptide is in each of the 8 rows. One plate contains dilutions of one test agent and 8 bacterial isolates.
(§4) Ninety μl of the bacterial suspensions is dispensed in each well from column 1 to column 12. Each bacterial isolate is placed in one row of a 96 well polypropylene plate containing the test agents. The plates are placed on shaker at 15 minutes at room temperature, and then incubated at 37° C. overnight. MICs are determined visually as the lowest concentration of drug that inhibits visible bacterial growth.
(§5) Data is expressed as MIC50 in μg/ml. The bacterial isolates were as follows: E. coli (25922); S. aureus (27660); E. faecalis (29212); P. aeruginosa (10145); and K. pneumoniae (13883).

Row | SMILES | MIC50 [µg/mL]
9 | N=C(N)NCCCOc1cc(-c2cn(-c3cc(OCCCNC(=N)N)cc(OCCCNC(=N)N)c3)nn2)cc(-c2cn(-c3cc(OCCCNC(=N)N)cc(OCCCNC(=N)N)c3)nn2)c1 [Compound 100] | 25 (≈ 26.6 µM)
10 | NCCCOc1ccc(-n2cc(-c3cccc(-c4cn(-c5ccc(OCCCN)c(OCCCN)c5)nn4)c3)nn2)cc1OCCCN [Compound 101] | 12.5 (≈ 19 µM)
11 | NCCCOc1cc(OCCCN)cc(-n2cc(-c3ccc4ccc(-c5cn(-c6cc(OCCCN)cc(OCCCN)c6)nn5)cc4c3)nn2)c1 [Compound 102] | 25 (≈ 35.4 µM)
12 | NCCCOc1ccc(-n2cc(-c3ccc4ccc(-c5cn(-c6ccc(OCCCN)c(OCCCN)c6)nn5)cc4c3)nn2)cc1OCCCN [Compound 103] | 25 (≈ 35.4 µM)

Test system: K. pneumoniae (13883)
Assay: MIC assay (Table 1)
Assay type: cell-based
Details: Klebsiella pneumoniae, isolate 13883, read-out: MIC50 K. Pnuemnoiae
Protocol: as §1, §2, §3, §4, §5

Row | SMILES | MIC50 [µg/mL]
13 | N=C(N)NCCCOc1cc(-c2cn(-c3cc(OCCCNC(=N)N)cc(OCCCNC(=N)N)c3)nn2)cc(-c2cn(-c3cc(OCCCNC(=N)N)cc(OCCCNC(=N)N)c3)nn2)c1 [Compound 100] | > 50
14 | NCCCOc1ccc(-n2cc(-c3cccc(-c4cn(-c5ccc(OCCCN)c(OCCCN)c5)nn4)c3)nn2)cc1OCCCN [Compound 101] | > 50
15 | NCCCOc1cc(OCCCN)cc(-n2cc(-c3ccc4ccc(-c5cn(-c6cc(OCCCN)cc(OCCCN)c6)nn5)cc4c3)nn2)c1 [Compound 102] | 50 (≈ 70.7 µM)
16 | NCCCOc1ccc(-n2cc(-c3ccc4ccc(-c5cn(-c6ccc(OCCCN)c(OCCCN)c6)nn5)cc4c3)nn2)cc1OCCCN [Compound 103] | > 50

Test system: P. aeruginosa (10145)
Assay: MIC assay (Table 1)
Assay type: cell-based
Details: Pseudomonas aeruginosa, isolate 10145

Row | SMILES | MIC50 [µg/mL]
17 | N=C(N)NCCCOc1cc(-c2cn(-c3cc(OCCCNC(=N)N)cc(OCCCNC(=N)N)c3)nn2)cc(-c2cn(-c3cc(OCCCNC(=N)N)cc(OCCCNC(=N)N)c3)nn2)c1 [Compound 100] | > 50
18 | NCCCOc1ccc(-n2cc(-c3cccc(-c4cn(-c5ccc(OCCCN)c(OCCCN)c5)nn4)c3)nn2)cc1OCCCN [Compound 101] | 50 (≈ 76.1 µM)
19 | NCCCOc1cc(OCCCN)cc(-n2cc(-c3ccc4ccc(-c5cn(-c6cc(OCCCN)cc(OCCCN)c6)nn5)cc4c3)nn2)c1 [Compound 102] | > 50
20 | NCCCOc1ccc(-n2cc(-c3ccc4ccc(-c5cn(-c6ccc(OCCCN)c(OCCCN)c6)nn5)cc4c3)nn2)cc1OCCCN [Compound 103] | 50 (≈ 70.7 µM)

Test system: NIH/3T3 cells
Assay: Cytotoxicity colorimetric assay
Assay type: cell-based
Details: Mus musculus, NIH3T3, 1 h, one hour incubation in serum-free media
Protocol: Cytotoxicity of the compounds are evaluated in a colorimetric assay using a transformed human liver cell line (HepG2, HB-8065) and an embryonic mouse cell line (NIH/3T3 cells, CRL-1658). This assay measures the bioreduction of a novel tetrazolium compound to a soluble formazan product by viable cells. HepG2 cells are seeded in 96 well plates at 2×10^4 cells/well in MEM medium with 10% fetal bovine serum (FBS) 24 hours prior to use. NIH/3T3 cells are seeded in 96 well plates at 2×10^4 cells/well in DMEM medium with 10% bovine calf serum (BCS) 24 hours prior to use. Cell monolayers are rinsed in serum-free media and incubated for one hour with a Compound in serum-free media. After incubation, the media is replaced with serum supplemented media and live cells are measured using the Cell Titer 96 Aqueous […] Assay kit (Promega, Madison, Wis.). EC50 values are determined using a four parameter logistic equation: Y=Bottom+(Top−Bottom)/(1+10^((Log EC50−X)*HillSlope)). […] Data is expressed as EC50 in μg/ml. Cytotoxicity is evaluated in a colorimetric assay using a transformed human liver cell line (HepG2, HB-8065) and an embryonic mouse cell line (NIH/3T3 cells, CRL-1658). This assay measures the bioreduction of a novel tetrazolium compound to a soluble formazan product by viable cells. HepG2 cells are seeded in 96 well plates at 3×10^4 cells/well in MEM medium with 10% fetal bovine serum (FBS) 24 hours prior to use. NIH/3T3 cells are seeded in 96 well plates at 2×10^4 cells/well in DMEM medium with 10% bovine calf serum (BCS) 24 hours prior to use. Cell monolayers are rinsed in serum-free media and incubated for one hour with test agent in serum-free media. After incubation, the media is replaced with serum supplemented media and live cells are measured using the Cell Titer 96 Aqueous […] Assay kit (Promega, Madison, Wis.). EC50 values are determined using a four parameter logistic equation: Y=Bottom+(Top−Bottom)/(1+10^((Log EC50−X)*HillSlope)).

Row | SMILES | EC50 [µg/mL]
21 | N=C(N)NCCCOc1cc(-c2cn(-c3cc(OCCCNC(=N)N)cc(OCCCNC(=N)N)c3)nn2)cc(-c2cn(-c3cc(OCCCNC(=N)N)cc(OCCCNC(=N)N)c3)nn2)c1 [Compound 100] | 23.2 (≈ 24.7 µM)
22 | NCCCOc1ccc(-n2cc(-c3cccc(-c4cn(-c5ccc(OCCCN)c(OCCCN)c5)nn4)c3)nn2)cc1OCCCN [Compound 101] | 52.4 (≈ 79.8 µM)
23 | NCCCOc1cc(OCCCN)cc(-n2cc(-c3ccc4ccc(-c5cn(-c6cc(OCCCN)cc(OCCCN)c6)nn5)cc4c3)nn2)c1 [Compound 102] | 36.1 (≈ 51.1 µM)
24 | NCCCOc1ccc(-n2cc(-c3ccc4ccc(-c5cn(-c6ccc(OCCCN)c(OCCCN)c6)nn5)cc4c3)nn2)cc1OCCCN [Compound 103] | 32.7 (≈ 46.3 µM)

Test system: HepG2
Assay: Cytotoxicity colorimetric assay
Assay type: cell-based
Details: Homo sapiens, HepG2, 1 h, one hour incubation in serum-free media
Protocol: Cytotoxicity of the compounds are evaluated in a colorimetric assay using a transformed human liver cell line (HepG2, HB-8065) and an embryonic mouse cell line (NIH/3T3 cells, CRL-1658). This assay measures the bioreduction of a novel tetrazolium compound to a soluble formazan product by viable cells. HepG2 cells are seeded in 96 well plates at 2×10^4 cells/well in MEM medium with 10% fetal bovine serum (FBS) 24 hours prior to use. NIH/3T3 cells are seeded in 96 well plates at 2×10^4 cells/well in DMEM medium with 10% bovine calf serum (BCS) 24 hours prior to use. Cell monolayers are rinsed in serum-free media and incubated for one hour with a Compound in serum-free media. After incubation, the media is replaced with serum supplemented media and live cells are measured using the Cell Titer 96 Aqueous […] Assay kit (Promega, Madison, Wis.). EC50 values are determined using a four parameter logistic equation: Y=Bottom+(Top−Bottom)/(1+10^((Log EC50−X)*HillSlope)). Actual results from a representative cytotoxicity assay are shown below in Table 3. Data is expressed as EC50 in μg/ml. Cytotoxicity is evaluated in a colorimetric assay using a transformed human liver cell line (HepG2, HB-8065) and an embryonic mouse cell line (NIH/3T3 cells, CRL-1658). This assay measures the bioreduction of a novel tetrazolium compound to a soluble formazan product by viable cells. HepG2 cells are seeded in 96 well plates at 3×10^4 cells/well in MEM medium with 10% fetal bovine serum (FBS) 24 hours prior to use. NIH/3T3 cells are seeded in 96 well plates at 2×10^4 cells/well in DMEM medium with 10% bovine calf serum (BCS) 24 hours prior to use. Cell monolayers are rinsed in serum-free media and incubated for one hour with test agent in serum-free media. After incubation, the media is replaced with serum supplemented media and live cells are measured using the Cell Titer 96 Aqueous […] Assay kit (Promega, Madison, Wis.). EC50 values are determined using a four parameter logistic equation: Y=Bottom+(Top−Bottom)/(1+10^((Log EC50−X)*HillSlope)).

Row | SMILES | EC50 [µg/mL]
25 | N=C(N)NCCCOc1cc(-c2cn(-c3cc(OCCCNC(=N)N)cc(OCCCNC(=N)N)c3)nn2)cc(-c2cn(-c3cc(OCCCNC(=N)N)cc(OCCCNC(=N)N)c3)nn2)c1 [Compound 100] | 48.6 (≈ 51.7 µM)
26 | NCCCOc1cc(OCCCN)cc(-n2cc(-c3ccc4ccc(-c5cn(-c6cc(OCCCN)cc(OCCCN)c6)nn5)cc4c3)nn2)c1 [Compound 102] | 48.4 (≈ 68.5 µM)
27 | NCCCOc1ccc(-n2cc(-c3ccc4ccc(-c5cn(-c6ccc(OCCCN)c(OCCCN)c6)nn5)cc4c3)nn2)cc1OCCCN [Compound 103] | 55.5 (≈ 78.5 µM)
